From patent publication US10435388B2, “Selective inhibitors of clinically important mutants of the EGFR tyrosine kinase” (CS PHARMATECH LIMITED, priority 2016, dated 2019)
Several values for one entry are separate records, joined by “and”; a condition that tells them apart may be missing. Equal values may be shown once. Read-outs that look alike come from different tables or passages of the source.

Assays:
[1] = tested on: NCI-H1975 cells (EGFR L858R/T790 double mutant); test: H1975 inhibition assay (cell proliferation), Method A; assay type: cell-based; conditions: Homo sapiens; cellular proliferation, NCI-H1975 cells, 72 h, CellTiter-Glo (Table 1); read-out: NCI-H1975 IC50 (nM) DM
Experimental: (§1) Cell Proliferation Assays—Method A
H1975 Inhibition Assay (Cell Proliferation)
(§2) The final concentration was 4,000 cells/well. Add medium only as low control.
(§3) Day-2: Test compounds were dissolved in DMSO at 0.2 mM (200×).
(§4) Day-5: After 72 hours incubation, remove the plates from incubator and equilibrate at room temperature for 15 minutes. Incubate the CellTiter Glo reagents (Promega, G9243) at 37° C. before the experiment. The buffer was equilibrated to room temperature and used to dissolve the substrate. To determine the cell viability, add 30 μL of CellTiter-Glo reagent into each well to be detected. Then shake the plates at room temperature for 10 min and followed by plate read on Envision (PerkinElmer).
(§5) For estimation of IC50, the luminescence readout are transformed to % Inhibition by applying the following equation: The IC50 was then
(§6) [formula] calculated by fitting in XLFit to a four parameters logistic curve.

[2] = tested on: LoVo cells (unmutated EGFR wild type); test: LoVo growth inhibition assay (cell proliferation), Method A; assay type: cell-based; conditions: Homo sapiens, cellular proliferation, 72 h, CellTiter-Glo (Table 1), read-out: LoVo IC50 (nM) WT
Experimental: as §1
LoVo Growth Inhibition Assay (Cell Proliferation)
The rest of the procedure was carried out in the same manner as described for the H1975 cells.

[3] = tested on: PC9 cells (EGFR d746-750 single mutant); test: PC-9 growth inhibition assay (cell proliferation), Method A; assay type: cell-based, human; conditions: Homo sapiens, PC-9; cellular proliferation, PC9 cells, 72 h, CellTiter-Glo (Table 1); read-out: PC9 IC50 (nM) SM
Experimental: as §1, §2, §3, §4, §5, §6
PC-9 Growth Inhibition Assay (Cell Proliferation)
The inhibition assay for PC-9 cells was processed in the same manner as described for the H1975 cells.

EGFR_T790M/L858R = EGFR_T790M/L858R (Homo sapiens, UniProt P00533, L858R/T790M); test: Enzyme assay, IC50 for double-mutant EGFR (EGFR_T790M/L858R) (Caliper); assay type: biochemical; conditions: enzyme phosphorylation assay; read-out: EGFR_L858R/T790 IC50
Experimental: (§7) Using the same technique as described in the previous paragraph, various mutated forms of the epidermal growth factor receptor may be isolated from appropriate cell lines which contain them. For example, the EGFR de1746-750 mutant protein may be extracted from PC-9 cells, and the L858R/T790M double mutant EGFR protein may be isolated from H1975 cells.
Determination of IC50 Values for Double-Mutant EGFR (EGFR_T790M/L858R)
Dilute all compounds to 500 μM stock solutions in 100% DMSO and make a serial of 4-fold dilution for 10 does. “Max” and “Min” control contain 100% DMSO. “Max” stands for […], “Min” stands for low control without compounds. Transfer 10 μl of compounds to 90 μl of 1× kinase base buffer to make intermediate dilution. […] Incubate at RT for 1 hr and 25 μl stop buffer to end up reaction. Collect conversion data from Caliper and conversion data from Caliper program. Fit the data in XLfit to obtain IC50 values.

EGFR_d746-750 = EGFR_d746-750 (Homo sapiens, UniProt P00533, DEL746-750); test: Enzyme assay, IC50 for single mutant EGFR_d746-750 (Caliper); assay type: biochemical; conditions: enzyme phosphorylation assay
Experimental: as §7
Determination of IC50 Values for Single Mutant EGFR_d746-750
Dilute all compounds to 500 μM stock solutions in 100% DMSO and make a serial of 4-fold dilution for 10 doses. “Max” and “Min” control contain 100% DMSO. “Max” stands for […], “Min” stands for low control without compounds. Transfer 10 μl of compounds to 90 μl of 1× kinase base buffer to make intermediate dilution. […] Incubate at RT for 1 hr and 25 μl stop buffer to end up reaction. Collect conversion data from Caliper and conversion data from Caliper program. Fit the data in XLfit to obtain IC50 values.

Wt EGFR = target: T1, Wt EGFR (Homo sapiens, UniProt P00533); test: Enzyme assay, IC50 for wt EGFR (Caliper); assay type: biochemical; conditions: enzyme phosphorylation assay; read-out: EGFR_WT IC50
T1 construct: isolated from A431 human epidermoid carcinoma cells which overexpress EGF receptor; endogenous in cells; host or cells: A431 human epidermoid carcinoma cells (receptor purified on wheat germ agglutinin sepharose)
Experimental: Purification of Epidermal Growth Factor Receptor Tyrosine Kinase Human EGF receptor tyrosine kinase was isolated from A431 human epidermoid carcinoma cells which overexpress EGF receptor by the following methods. Cells were grown in roller bottles in 50% Delbuco's Modified Eagle and 50% HAM F-12 nutrient media (Gibco) containing 10% fetal calf serum. Approximately 10^9 cells were lysed in two volumes of buffer containing 20 mM 2-(4N-[2-hydroxyethyl]piperazin-1-yl)ethanesulfonic acid (hepes), pH 7.4, 5 mM ethylene glycol bis(2-aminoethyl ether) N,N,N′,N′-tetraacetic acid, 1% Triton X-1OO, 10% glycerol. 0.1 mM sodium orthovanadate, 5 mM sodium fluoride, 4 mM pyrophosphate, 4 mM benzamide, 1 mM dithiothreitol, 80 μg/mL aprotinin, 40 μg/mL leupeptin and 1 mM phenylmethylsulfonyl fluoride. After centrifugation at 25,000×g for 10 minutes, the supernatant was equilibrated for 2 h at […], with 10 mL of wheat germ agglutinin sepharose that was previously equilibrated with 50 mM Hepes, 10% glycerol, 0.1% Triton X-100 and 150 mM NaCl, pH 7.5, (equilibration buffer). Contaminating proteins were washed from the resin with 1M NaCl in equilibration buffer, and the enzyme was eluted with 0.5M N-acetyl-1-D-glucosamine in equilibration buffer, followed by 1 mM urea. The enzyme was eluted with 0.1 mg/ml EGF.
Determination of IC50 Values for Wt EGFR
Dilute all compounds to 500 μM stock solutions in 100% DMSO and make a serial of 4-fold dilution for 10 does. “Max” and “Min” control contain 100% DMSO. “Max” stands for […], “Min” stands for low control without compounds. Transfer 10 μl of compounds to 90 μl of Ix kinase base buffer to make intermediate dilution. Transfer 5 μl of intermediate dilution compounds to the 384-well assay plate, then 10 μl 2.5× enzyme buffer containing (20 nM EGFR, 5 mM DTT, 1× kinase base buffer) were added to assay plate. […] Incubate at RT for 1 hr and 25 μl stop buffer to end up reaction. Collect conversion data from Caliper and conversion data from Caliper program. Fit the data in XLfit to obtain IC50 values.

INSR = target: T2, INSR (Homo sapiens, UniProt P06213); test: INSR inhibition assay (Caliper EZ Reader); assay type: biochemical; conditions: enzyme assay
T2 construct: purchased CARNA BIOSCIENCE 08-142
Experimental: (§8) Test compound was dissolved in DMSO at 30 mM. […] 20 nL of these compounds DMSO dilutes were dispensed into a new 384-well assay plate by Echo 550. […] 15 uL of kinase assay buffer containing INSR protein and substrate was transferred to assay plate and incubate at RT for 30 minutes. Kinase assay buffer supplemented with substrate peptides was employed as low control to monitor the background. 40 LM ATP was prepared in kinase assay buffer containing and 5 μL of ATP solution was added to each well to start the reaction. The assay plate was incubated at 25° C. for 180 minutes and the reaction was stopped by adding 40 μL of 0.5 M EDTA.
The result is analyzed in the same manner of […].

[4] = tested on: p-EGFR in H1975 cells (L858R/T790M double mutant EGFR)
Experimental: H1975 cells were cryopreserved in liquid nitrogen. […] Remove the vial from liquid nitrogen and thaw rapidly by placing at 37° C. in a water bath with gentle agitation for 1-2 minutes and then decontaminated by wiping with 70% ethanol before opening in a Class II biological safety cabinet. Transfer the vial contents drop-wise into 10 mL of cell culture medium in a sterile 15 mL conical tube. Then centrifuged the tube at 200× g for 5 minutes and aspirate the supernatant. Re-suspend the cell pellet with 1 mL of fresh cell culture medium and transfer it in to the T75 flask containing cell culture medium.
To passage H1975 cells, firstly, the adherent cells were rinsed with Trypsin/EDTA. Then add Trypsin/EDTA (3 mL for a T75 flask) into the flask and swirl to ensure the cells coated with trypsin evenly. Then incubate the flasks at 37° C. until the cells detach. Add equal volume of cell culture medium to stop the reaction. Collect the detached cells and centrifuged at 200× g for 5 minutes followed by re-suspended in fresh culture medium. Then, the cells were transferred into a new T75 flask containing cell culture medium. Cells were sub-cultured three times per week at a ratio of 1:4 in culture medium.
Harvest cells from flask into cell culture medium and the cell numbers counted using Automated Cell Counter (Thermo Fisher Scientific, Countess™). Dilute the cells into 250,000 cells/mL with culture medium and add 40 μL of cell suspension into each well of 384-well cell culture plate as designated. The final concentration was 10,000 cells/well. The plates were covered with lid and placed in 37° C. 5% CO2 incubator overnight for cell attachment.
On the second day, test compounds were dissolved in DMSO at 10 mM. […] The same volume of DMSO was adopted as high control.
Place the plate back to 37° C. 5% CO2 incubator for 2 hours. Replace the medium of each well with ice-cold HBSS. Then remove the HBSS, add 30 μL cell lysis buffer into each well and shake the plates for 30 mins on a plate shaker. Centrifuge for 5 min at 1,000 rpm to remove bubbles and transfer 25 uL of the lysate supernatant for p-EGFR assay by using a commercial ELISA kit (R&D, DYC1095B-5).
For estimation of IC50, the absorption readout are transformed to % relative activity by applying the following equation
[formula] The IC50 was then calculated by fitting in XLFit (IDBS, Guildford, Surrey) to a four parameters logistic curve.

IGF-1R = target: T3, IGF-1R (Homo sapiens, UniProt P08069); test: IGF-1R inhibition assay (Caliper EZ Reader); assay type: biochemical; conditions: enzyme assay
T3 construct: purchased CARNA BIOSCIENCE 08-141
Experimental: as §8, with “IGF-1R” for “INSR”, “μM” for “LM”
Phosphorylated fluorescent-tagged peptides were differentiated from non-phosphorylated peptides by separating using Caliper EZ Reader II and the detection was directly converted to conversion ratio.

[5] = tested on: p-EGFR in PC9 cells (Exon 19 deletion EGFR); test: Exon19 deletion EGFR (activating single mutant) PC-9 cellular autophosphorylation assay; assay type: cell-based, human; conditions: 2 h treatment, ELISA
Experimental: Cellular EGFR Autophosphorylation Assays.
The human lung cell line PC9 (Exon 19 deletion EGFR) is obtained from the American type Culture Collection. […] Cells are grown in a humidified incubator at 37° C. with 5% CO2, Assays to measure cellular phosphorylation of endogenous p-EGFR in cell Iysates are carried out according to the protocol described in the R&D Systems DuoSet IC Human Phospho-EGF R ELISA (R&D Systems catalogue number #DYCI095). 40 μL of cells are seeded (10000 cells/well) in growth medium in Corning black, clear-bottomed 384-well plates and incubated at 37° C., with 5%0/CO2 overnight. […] Plates are incubated for a further 2 h, then following aspiration of medium, 40 μL×lysis buffer is added to each well. Greiner black high bind 384 well plates are coated with capture antibody and then blocked with 3% BSA. Following removal of block, 15 μL of lysate are transferred to the Greiner black high bind 384 well plates and incubated for 2 hours. Following aspiration and washing of the plates with PBS, 20 μL of detection antibody are added and incubated for 2 hours. […] The data obtained with each compound are exported into a suitable software package (such as Origin) to perform curve fitting analysis.

T1 sequence (P00533 25-1210): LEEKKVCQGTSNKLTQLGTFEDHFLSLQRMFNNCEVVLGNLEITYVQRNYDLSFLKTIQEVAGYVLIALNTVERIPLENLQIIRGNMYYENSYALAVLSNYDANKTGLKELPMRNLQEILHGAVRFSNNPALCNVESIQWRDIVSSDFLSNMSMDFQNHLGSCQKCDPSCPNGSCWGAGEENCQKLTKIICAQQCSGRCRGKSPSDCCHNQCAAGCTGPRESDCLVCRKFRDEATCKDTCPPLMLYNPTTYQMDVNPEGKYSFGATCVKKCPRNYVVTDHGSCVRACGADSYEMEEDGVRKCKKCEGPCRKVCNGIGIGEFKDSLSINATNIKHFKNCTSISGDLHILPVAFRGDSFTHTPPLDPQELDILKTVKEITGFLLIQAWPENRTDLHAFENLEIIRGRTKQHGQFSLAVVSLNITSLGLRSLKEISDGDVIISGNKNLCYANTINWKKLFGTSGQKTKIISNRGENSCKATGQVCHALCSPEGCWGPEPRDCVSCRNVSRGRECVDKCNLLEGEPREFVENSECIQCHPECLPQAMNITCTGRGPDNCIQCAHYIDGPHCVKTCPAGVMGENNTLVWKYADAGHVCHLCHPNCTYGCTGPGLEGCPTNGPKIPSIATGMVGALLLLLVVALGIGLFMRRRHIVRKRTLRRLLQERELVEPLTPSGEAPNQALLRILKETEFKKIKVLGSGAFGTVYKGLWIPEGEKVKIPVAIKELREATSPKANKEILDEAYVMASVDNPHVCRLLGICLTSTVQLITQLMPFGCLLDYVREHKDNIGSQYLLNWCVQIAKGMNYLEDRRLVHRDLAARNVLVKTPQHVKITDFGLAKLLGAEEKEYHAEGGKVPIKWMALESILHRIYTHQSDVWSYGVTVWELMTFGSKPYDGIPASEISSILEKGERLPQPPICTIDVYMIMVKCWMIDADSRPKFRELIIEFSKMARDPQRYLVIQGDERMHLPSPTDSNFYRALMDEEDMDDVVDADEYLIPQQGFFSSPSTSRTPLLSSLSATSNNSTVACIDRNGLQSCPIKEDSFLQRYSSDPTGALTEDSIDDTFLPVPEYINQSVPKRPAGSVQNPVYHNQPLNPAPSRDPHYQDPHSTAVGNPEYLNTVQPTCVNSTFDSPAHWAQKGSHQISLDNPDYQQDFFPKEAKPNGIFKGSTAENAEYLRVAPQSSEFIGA
Sequence of EGFR_d746-750 (P00533 with tags, fused parts or gaps DEL746-750): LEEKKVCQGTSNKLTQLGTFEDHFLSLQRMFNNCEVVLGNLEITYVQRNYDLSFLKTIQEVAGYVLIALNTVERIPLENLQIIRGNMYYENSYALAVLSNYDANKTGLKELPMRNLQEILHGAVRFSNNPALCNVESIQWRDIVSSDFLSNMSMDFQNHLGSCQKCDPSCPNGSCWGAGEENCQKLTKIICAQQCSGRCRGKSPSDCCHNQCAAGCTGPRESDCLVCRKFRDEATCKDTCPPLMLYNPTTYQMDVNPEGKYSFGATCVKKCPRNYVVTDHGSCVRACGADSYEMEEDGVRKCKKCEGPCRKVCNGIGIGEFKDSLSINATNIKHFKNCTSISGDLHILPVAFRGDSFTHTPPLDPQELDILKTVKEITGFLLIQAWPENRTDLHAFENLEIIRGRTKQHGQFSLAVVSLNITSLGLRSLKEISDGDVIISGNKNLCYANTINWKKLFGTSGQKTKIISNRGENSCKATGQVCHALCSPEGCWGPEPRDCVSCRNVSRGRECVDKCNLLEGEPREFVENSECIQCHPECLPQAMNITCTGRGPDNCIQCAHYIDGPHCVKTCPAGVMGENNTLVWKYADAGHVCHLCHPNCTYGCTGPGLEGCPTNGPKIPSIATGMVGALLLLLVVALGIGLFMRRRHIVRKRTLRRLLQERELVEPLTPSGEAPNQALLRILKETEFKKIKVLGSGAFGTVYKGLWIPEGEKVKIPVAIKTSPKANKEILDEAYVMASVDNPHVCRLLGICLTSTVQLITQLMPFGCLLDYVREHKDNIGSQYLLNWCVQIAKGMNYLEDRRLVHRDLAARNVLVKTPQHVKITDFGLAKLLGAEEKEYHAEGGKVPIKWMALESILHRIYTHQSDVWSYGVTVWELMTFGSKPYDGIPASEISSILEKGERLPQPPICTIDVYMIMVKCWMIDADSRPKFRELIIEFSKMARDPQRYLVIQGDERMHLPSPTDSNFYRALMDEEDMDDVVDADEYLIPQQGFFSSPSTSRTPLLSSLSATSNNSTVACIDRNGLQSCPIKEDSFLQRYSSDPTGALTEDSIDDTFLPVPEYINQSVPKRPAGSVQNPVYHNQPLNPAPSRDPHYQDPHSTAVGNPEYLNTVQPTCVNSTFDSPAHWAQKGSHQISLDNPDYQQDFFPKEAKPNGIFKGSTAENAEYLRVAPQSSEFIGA
Sequence of EGFR_T790M/L858R (P00533 25-1210 T790M/L858R): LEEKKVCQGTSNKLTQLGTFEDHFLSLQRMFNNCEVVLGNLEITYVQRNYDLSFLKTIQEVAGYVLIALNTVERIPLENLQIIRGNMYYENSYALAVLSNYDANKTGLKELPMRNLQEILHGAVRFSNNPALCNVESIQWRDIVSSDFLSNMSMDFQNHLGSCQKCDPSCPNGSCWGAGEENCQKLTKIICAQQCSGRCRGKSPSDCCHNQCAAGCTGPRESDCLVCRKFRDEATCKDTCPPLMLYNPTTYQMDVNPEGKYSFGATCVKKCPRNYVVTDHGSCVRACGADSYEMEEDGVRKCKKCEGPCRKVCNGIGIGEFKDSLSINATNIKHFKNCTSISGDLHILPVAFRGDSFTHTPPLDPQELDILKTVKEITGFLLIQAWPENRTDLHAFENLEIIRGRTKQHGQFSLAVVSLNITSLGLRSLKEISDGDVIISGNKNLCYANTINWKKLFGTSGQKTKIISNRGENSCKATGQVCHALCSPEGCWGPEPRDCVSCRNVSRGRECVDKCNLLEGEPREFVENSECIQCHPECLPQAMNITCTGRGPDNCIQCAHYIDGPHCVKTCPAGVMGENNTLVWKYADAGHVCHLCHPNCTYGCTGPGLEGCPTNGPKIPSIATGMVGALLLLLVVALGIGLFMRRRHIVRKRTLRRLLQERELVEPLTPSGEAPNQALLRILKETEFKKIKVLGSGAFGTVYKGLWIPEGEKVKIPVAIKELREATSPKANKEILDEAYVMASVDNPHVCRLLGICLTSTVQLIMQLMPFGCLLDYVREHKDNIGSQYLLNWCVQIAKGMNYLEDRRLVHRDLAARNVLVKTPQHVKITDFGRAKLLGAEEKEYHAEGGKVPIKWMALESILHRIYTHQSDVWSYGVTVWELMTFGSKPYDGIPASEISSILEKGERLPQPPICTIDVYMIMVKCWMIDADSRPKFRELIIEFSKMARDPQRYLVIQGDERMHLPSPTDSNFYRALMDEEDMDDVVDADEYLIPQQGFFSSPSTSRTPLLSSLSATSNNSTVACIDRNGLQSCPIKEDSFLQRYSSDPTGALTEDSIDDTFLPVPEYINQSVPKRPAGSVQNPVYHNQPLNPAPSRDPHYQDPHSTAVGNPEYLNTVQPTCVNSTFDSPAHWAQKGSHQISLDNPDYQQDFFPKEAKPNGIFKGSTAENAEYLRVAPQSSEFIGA
T2 sequence (P06213 989-1382 limits assumed): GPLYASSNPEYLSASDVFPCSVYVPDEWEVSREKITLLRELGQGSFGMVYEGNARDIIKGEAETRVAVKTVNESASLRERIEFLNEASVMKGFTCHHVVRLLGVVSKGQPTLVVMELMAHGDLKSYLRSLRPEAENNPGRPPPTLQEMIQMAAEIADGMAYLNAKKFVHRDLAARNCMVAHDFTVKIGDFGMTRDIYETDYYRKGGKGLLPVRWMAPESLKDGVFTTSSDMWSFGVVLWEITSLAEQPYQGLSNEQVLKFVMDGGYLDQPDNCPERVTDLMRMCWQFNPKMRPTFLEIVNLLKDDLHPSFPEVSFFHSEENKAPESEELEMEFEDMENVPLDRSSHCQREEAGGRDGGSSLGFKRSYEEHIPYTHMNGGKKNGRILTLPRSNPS
T3 sequence (P08069 959-1367 limits assumed): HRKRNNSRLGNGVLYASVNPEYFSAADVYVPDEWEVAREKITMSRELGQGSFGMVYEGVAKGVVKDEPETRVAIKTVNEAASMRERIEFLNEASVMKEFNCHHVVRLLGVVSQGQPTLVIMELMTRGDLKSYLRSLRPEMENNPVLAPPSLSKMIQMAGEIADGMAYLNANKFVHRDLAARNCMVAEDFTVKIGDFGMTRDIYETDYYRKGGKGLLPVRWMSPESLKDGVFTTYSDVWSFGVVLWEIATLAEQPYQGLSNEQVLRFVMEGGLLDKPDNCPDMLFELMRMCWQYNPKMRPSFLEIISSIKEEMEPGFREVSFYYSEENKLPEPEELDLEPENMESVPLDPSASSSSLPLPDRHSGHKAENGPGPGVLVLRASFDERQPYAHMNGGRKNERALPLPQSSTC

`C=CC(=O)Nc1cc(Nc2nccc(-c3c(C)[nH]c4ccccc34)n2)c(OC)cc1N(C)CCN(C)C` [Example 14, N-(2-(N-(2-(N,N-Dimethylamino)ethyl)-N-methylamino)-4-methoxy-5-(4-(2-methylindol-3-yl)pyrimidin-2-ylamino)phenyl) propenamide] was tested, and the IC50 [1] was 3.7 nM, the IC50 [2] was 2980 nM and the IC50 [3] was 6.1 nM. It also gave an IC50 (EGFR_T790M/L858R) of 1.8 nM, an IC50 (EGFR_d746-750) of 1 nM and an IC50 (Wt EGFR) of 5 nM.

Compound `C=CC(=O)Nc1cc(Nc2nccc(-n3cc(Cl)c4ccccc43)n2)c(OC)cc1N(C)CCN(C)C` [Example 3, N-(2-(N,N-(2-(N,N-Dimethylamino)ethyl)-N-methylamino)-4-methoxy-5-(4-(3-chloroindol-1-yl)pyrimidin-2-ylamino)phenyl) propenamide] has an IC50 [1] of 17.9 nM, an IC50 [2] of 2810 nM and an IC50 [3] of 23.3 nM. The IC50 (EGFR_T790M/L858R) was 1.5 nM, the IC50 (EGFR_d746-750) was 5.3 nM and the IC50 (Wt EGFR) was 8.4 nM.

For `C=CC(=O)Nc1cc(Nc2nccc(-c3c[nH]c4c(C#N)cccc34)n2)c(OC)cc1N(C)CCN(C)C` [Example 12, N-(2-(N-(2-(N,N-Dimethylamino)ethyl)-N-methylamino)-4-methoxy-5-(4-(7-cyanoindol-3-yl)pyrimidin-2-ylamino)phenyl) propenamide], the IC50 [1] was 3.5 nM, the IC50 [2] was 2560 nM and the IC50 [3] was 5.2 nM. For the same compound, the IC50 (EGFR_T790M/L858R) was 1.2 nM, the IC50 (EGFR_d746-750) was 1.1 nM and the IC50 (Wt EGFR) was 1.5 nM.

With `C=CC(=O)Nc1cc(Nc2nccc(N3CCc4ccccc43)n2)c(OC)cc1N(C)CCN(C)C` [Example 13, N-(2-(N-(2-(N,N-Dimethylamino)ethyl)-N-methylamino)-4-methoxy-5-(4-(2,3-dihydroindol-1-yl)pyrimidin-2-ylamino)phenyl) propenamide] the IC50 [1] was 5.6 nM, the IC50 [2] was 5810 nM and the IC50 [3] was 9.9 nM. The IC50 (EGFR_T790M/L858R) was 1.5 nM, the IC50 (EGFR_d746-750) was 1.7 nM and the IC50 (Wt EGFR) was 6.7 nM.

Work on `C=CC(=O)Nc1cc(Nc2nccc(-n3cc(S(C)(=O)=O)c4ccccc43)n2)c(OC)cc1N(C)CCN(C)C` [Example 9, N-(2-(N-(2-(N,N-Dimethylamino)ethyl)-N-methylamino)-4-methoxy-5-(4-(3-(methylsulfonyl)indol-1-yl)pyrimidin-2-ylamino)phenyl) propenamide] yielded an IC50 [1] of 2.4 nM, an IC50 [2] of 5860 nM and an IC50 [3] of 3.4 nM. The IC50 (EGFR_T790M/L858R) was 1.3 nM, the IC50 (EGFR_d746-750) was 1.1 nM and the IC50 (Wt EGFR) was 1.5 nM.

Compound `C=CC(=O)Nc1cc(Nc2nccc(-n3cc(C#N)c4ccccc43)n2)c(OC)cc1N(C)CCN(C)C` [Example 4, N-(2-(N-(2-(N,N-Dimethylamino)ethyl)-N-methylamino)-4-methoxy-5-(4-(3-cyanoindol-1-yl)pyrimidin-2-ylamino)phenyl) propenamide] has an IC50 [1] of 18.8 nM, an IC50 [2] of 2890 nM and an IC50 [3] of 25.9 nM. For the same compound, the IC50 (EGFR_T790M/L858R) was 0.84 nM, the IC50 (EGFR_d746-750) was 2.6 nM and the IC50 (Wt EGFR) was 3.8 nM.

Work on `C=CC(=O)Nc1cc(Nc2nccc(-c3cn(C)c4ccccc34)n2)c(OC)cc1N(C)CCN(C)C` [AZD-9291] yielded an IC50 [1] of […], an IC50 [2] of 2860 nM and an IC50 [3] of 8.4 nM. For the same compound, the IC50 (INSR) was 267 nM and 253 nM, the IC50 ([4]; Homo sapiens, NCI-H1975, 2 h, read-out: H1975 IC50 (nM), cellular EGFR autophosphorylation, 2 h treatment, ELISA) was 22.7 nM and the IC50 ([4]; read-out: H1975 IC50, cellular EGFR autophosphorylation, 2 h treatment, ELISA) was 11.6 nM. For the same compound, the IC50 (IGF-1R) was 249 nM and 321 nM, the IC50 [5] was 7.31 nM and the IC50 ([5]; Homo sapiens, PC-9, 2 h) was 12.1 nM.
